# Where “and” joins values, the source holds several entries; their conditions need not be identical. Equal entries are not always repeated. Where two headings read alike, the source gives them in different places.
# Tests used:
# [1] = molecular target: α3S125Yβ2 receptor (Rattus norvegicus, UniProt P04757+P12390, S152Y); experiment: Macroscopic evoked currents, two-electrode voltage-clamp, Xenopus laevis oocytes
# [2] = molecular target: T1, wild type α3β2 receptor (Rattus norvegicus, UniProt P04757+P12390); experiment: as above; format: cell-based; conditions: 10 µM Mor; 300 µM ACh; control measurement before oxidation (Fig. 2)
# T1 sequence (P04757 26-499): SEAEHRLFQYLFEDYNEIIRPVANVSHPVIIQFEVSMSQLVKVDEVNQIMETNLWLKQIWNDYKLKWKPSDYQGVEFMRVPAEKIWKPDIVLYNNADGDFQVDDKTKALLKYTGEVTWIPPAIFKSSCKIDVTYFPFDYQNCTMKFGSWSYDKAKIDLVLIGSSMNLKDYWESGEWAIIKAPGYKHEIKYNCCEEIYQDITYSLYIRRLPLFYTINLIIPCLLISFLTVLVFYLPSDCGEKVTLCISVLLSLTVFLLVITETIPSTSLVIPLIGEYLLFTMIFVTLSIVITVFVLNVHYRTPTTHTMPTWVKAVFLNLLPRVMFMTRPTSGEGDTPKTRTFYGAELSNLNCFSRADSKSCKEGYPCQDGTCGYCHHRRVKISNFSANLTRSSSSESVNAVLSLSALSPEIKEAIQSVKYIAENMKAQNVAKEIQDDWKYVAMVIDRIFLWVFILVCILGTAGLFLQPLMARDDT
# T1 sequence (P12390 25-500): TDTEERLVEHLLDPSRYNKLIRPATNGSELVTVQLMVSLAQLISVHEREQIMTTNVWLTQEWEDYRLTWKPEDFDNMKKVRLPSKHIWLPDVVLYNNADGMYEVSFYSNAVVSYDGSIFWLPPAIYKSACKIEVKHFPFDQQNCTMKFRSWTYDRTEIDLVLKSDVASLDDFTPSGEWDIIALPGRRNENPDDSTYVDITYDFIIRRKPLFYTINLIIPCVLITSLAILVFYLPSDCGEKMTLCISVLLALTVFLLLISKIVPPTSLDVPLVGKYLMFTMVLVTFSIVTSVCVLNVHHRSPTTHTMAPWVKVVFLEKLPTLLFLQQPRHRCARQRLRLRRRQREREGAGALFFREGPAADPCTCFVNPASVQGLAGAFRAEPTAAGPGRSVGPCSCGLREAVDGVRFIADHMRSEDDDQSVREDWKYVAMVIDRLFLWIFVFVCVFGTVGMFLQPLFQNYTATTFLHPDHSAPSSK
# [3] = molecular target: T2, α3Y168Cβ2D190C receptor (Rattus norvegicus, UniProt P04757+P12390, D216C/Y195C); experiment: as above; format: cell-based
# T2 sequence (P04757 26-499 Y195C): as the sequence (P04757 26-499) above, with Y170C counted along it
# T2 sequence (P12390 25-500 D216C): as the sequence (P12390 25-500) above, with D192C counted along it
# [4] = molecular target: α3β2D190C receptor (Rattus norvegicus, UniProt P04757+P12390, D216C); experiment: as above; format: cell-based; conditions: for potentiation of ACh-evoked currents: 10 µM modulator (Fig. 3B)
# Chain of α3β2D190C receptor (P04757 26-499): as the sequence (P04757 26-499) above
# Chain of α3β2D190C receptor (P12390 25-500 D216C): as the sequence (P12390 25-500) above, with D192C counted along it
# [5] = molecular target: α3Y168Fβ2 receptor (Rattus norvegicus, UniProt P04757+P12390, Y195F); experiment: as above; format: cell-based
# Chain of α3Y168Fβ2 receptor (P04757 26-499 Y195F): as the sequence (P04757 26-499) above, with Y170F counted along it
# Chain of α3Y168Fβ2 receptor (P12390 25-500): as the sequence (P12390 25-500) above
# [6] = molecular target: α3β2D190Q receptor (Rattus norvegicus, UniProt P04757+P12390, D216Q); experiment: as above; format: cell-based; conditions: mutation-modulator Ɽ from EC50s vs wild type
# Chain of α3β2D190Q receptor (P04757 26-499): as the sequence (P04757 26-499) above
# Chain of α3β2D190Q receptor (P12390 25-500 D216Q): as the sequence (P12390 25-500) above, with D192Q counted along it
# [7] = molecular target: α3Y168Fβ2D190Q receptor (Rattus norvegicus, UniProt P04757+P12390, D216Q/Y195F); experiment: as above; format: cell-based; conditions: mutation-modulator Ɽ from EC50s vs wild type
# Chain of α3Y168Fβ2D190Q receptor (P04757 26-499 Y195F): as the sequence (P04757 26-499) above, with Y170F counted along it
# Chain of α3Y168Fβ2D190Q receptor (P12390 25-500 D216Q): as the sequence (P12390 25-500) above, with D192Q counted along it
# [8] = molecular target: α3S125Yβ2W149A receptor (Rattus norvegicus, UniProt P04757+P12390, S152Y/W175A); experiment: as above; format: cell-based
# Chain of α3S125Yβ2W149A receptor (P04757 26-499 S152Y): as the sequence (P04757 26-499) above, with S127Y counted along it
# Chain of α3S125Yβ2W149A receptor (P12390 25-500 W175A): as the sequence (P12390 25-500) above, with W151A counted along it
# [9] = molecular target: T3, α3S125Cβ2 receptor (Rattus norvegicus, UniProt P04757+P12390, S152C); experiment: as above; format: cell-based
# T3 sequence (P04757 26-499 S152C): as the sequence (P04757 26-499) above, with S127C counted along it
# T3 sequence (P12390 25-500, stated change not applied): as the sequence (P12390 25-500) above
# [10] = molecular target: α3β2Q39C receptor (Rattus norvegicus, UniProt P04757+P12390, Q65C); experiment: as above; format: cell-based; conditions: mutation-modulator Ɽ from EC50s vs wild type; 10 µM Mor
# Chain of α3β2Q39C receptor (P04757 26-499): as the sequence (P04757 26-499) above
# Chain of α3β2Q39C receptor (P12390 25-500 Q65C): as the sequence (P12390 25-500) above, with Q41C counted along it
# [11] = molecular target: α3Q37Cβ2 receptor (Rattus norvegicus, UniProt P04757+P12390, Q64C); experiment: as above; format: cell-based; conditions: mutation-modulator Ɽ from EC50s vs wild type; 10 µM Mor
# Chain of α3Q37Cβ2 receptor (P04757 26-499 Q64C): as the sequence (P04757 26-499) above, with Q39C counted along it
# Chain of α3Q37Cβ2 receptor (P12390 25-500): as the sequence (P12390 25-500) above
# [12] = molecular target: α3β2A127C receptor (Rattus norvegicus, UniProt P04757+P12390, A153C); experiment: as above; format: cell-based; conditions: mutation-modulator Ɽ from EC50s vs wild type; 10 µM Mor
# Chain of α3β2A127C receptor (P04757 26-499): as the sequence (P04757 26-499) above
# Chain of α3β2A127C receptor (P12390 25-500 A153C): as the sequence (P12390 25-500) above, with A129C counted along it
# [13] = molecular target: T4, α3Q37Cβ2A127C receptor (Rattus norvegicus, UniProt P04757+P12390, A153C/Q64C); experiment: as above; format: cell-based; conditions: mutation-modulator Ɽ from EC50s vs wild type; 10 µM Mor
# T4 sequence (P04757 26-499 Q64C): as the sequence (P04757 26-499) above, with Q39C counted along it
# T4 sequence (P12390 25-500 A153C): as the sequence (P12390 25-500) above, with A129C counted along it
# [14] = molecular target: α3β2A127Y receptor (Rattus norvegicus, UniProt P04757+P12390, A153Y); experiment: as above; format: cell-based
# Chain of α3β2A127Y receptor (P04757 26-499): as the sequence (P04757 26-499) above
# Chain of α3β2A127Y receptor (P12390 25-500 A153Y): as the sequence (P12390 25-500) above, with A129Y counted along it
# [15] = molecular target: α3S125Yβ2A127Y receptor (Rattus norvegicus, UniProt P04757+P12390, A153Y/S152Y); experiment: as above; format: cell-based
# Chain of α3S125Yβ2A127Y receptor (P04757 26-499 S152Y): as the sequence (P04757 26-499) above, with S127Y counted along it
# Chain of α3S125Yβ2A127Y receptor (P12390 25-500 A153Y): as the sequence (P12390 25-500) above, with A129Y counted along it
# [16] = molecular target: α3E173Aβ2 receptor (Rattus norvegicus, UniProt P04757+P12390, E200A); experiment: as above; format: cell-based
# Chain of α3E173Aβ2 receptor (P04757 26-499 E200A): as the sequence (P04757 26-499) above, with E175A counted along it
# Chain of α3E173Aβ2 receptor (P12390 25-500): as the sequence (P12390 25-500) above
# [17] = molecular target: α3β2R46V receptor (Rattus norvegicus, UniProt P04757+P12390, R72V); experiment: as above; format: cell-based; conditions: Mor alone; relative to saturating ACh; no Hill fit possible
# Chain of α3β2R46V receptor (P04757 26-499): as the sequence (P04757 26-499) above
# Chain of α3β2R46V receptor (P12390 25-500 R72V): as the sequence (P12390 25-500) above, with R48V counted along it
# [18] = molecular target: α3E173Aβ2R46V receptor (Rattus norvegicus, UniProt P04757+P12390, E200A/R46V); experiment: as above; format: cell-based; conditions: mutation-modulator Ɽ from EC50s vs wild type; 10 µM Mor
# Chain of α3E173Aβ2R46V receptor (P04757 26-499 E200A): as the sequence (P04757 26-499) above, with E175A counted along it
# Chain of α3E173Aβ2R46V receptor (P12390 25-500 R46V): as the sequence (P12390 25-500) above, with R22V counted along it
# [19] = molecular target: T1, wild type α3β2 receptor; conditions: Mor alone, cited from earlier work
# [20] = test system: α3β2W149A receptor; conditions: Mor alone; relative to saturating ACh; no Hill fit possible; cited from earlier work
# [21] = molecular target: T5, α3S125Cβ2Q39C receptor (Rattus norvegicus, UniProt P04757+P12390, Q65C/S152C); experiment: Macroscopic evoked currents, two-electrode voltage-clamp, Xenopus laevis oocytes
# T5 sequence (P04757 26-499 S152C): as the sequence (P04757 26-499) above, with S127C counted along it
# T5 sequence (P12390 25-500 Q65C): as the sequence (P12390 25-500) above, with Q41C counted along it
# [22] = molecular target: T2, α3Y168Cβ2D190C receptor; experiment: Disulfide cross-linking experiments; format: cell-based
# [23] = molecular target: T5, α3S125Cβ2Q39C receptor; experiment: Disulfide cross-linking experiments; format: cell-based
# [24] = molecular target: T4, α3Q37Cβ2A127C receptor; experiment: Disulfide cross-linking experiments; format: cell-based
# [25] = molecular target: α3E173Cβ2R46C receptor (Rattus norvegicus, UniProt P04757+P12390, E200C/R46C); experiment: Disulfide cross-linking experiments; format: cell-based
# Chain of α3E173Cβ2R46C receptor (P04757 26-499 E200C): as the sequence (P04757 26-499) above, with E175C counted along it
# Chain of α3E173Cβ2R46C receptor (P12390 25-500 R46C): as the sequence (P12390 25-500) above, with R22C counted along it
# [26] = molecular target: T1, wild type α3β2 receptor; experiment: Disulfide cross-linking experiments; format: cell-based; conditions: 5 min 4.4 mM H2O2 alone; 300 µM ACh ± 10 µM Mor
# [27] = molecular target: T3, α3S125Cβ2 receptor; experiment: Disulfide cross-linking experiments; format: cell-based; conditions: H2O2 oxidation treatment (Supplemental Fig. S3C)
# [28] = molecular target: α3Y168Cβ2 receptor (Rattus norvegicus, UniProt P04757+P12390, Y195C); experiment: Macroscopic evoked currents, two-electrode voltage-clamp, Xenopus laevis oocytes; format: cell-based; conditions: mutation-modulator Ɽ from EC50s vs wild type; 10 µM Oxa
# Chain of α3Y168Cβ2 receptor (P04757 26-499 Y195C): as the sequence (P04757 26-499) above, with Y170C counted along it
# Chain of α3Y168Cβ2 receptor (P12390 25-500): as the sequence (P12390 25-500) above
# [29] = mutation-modulator Ɽ from EC50s vs wild type, 10 µM Mor
# [30] = Mor alone, relative to saturating ACh
# [31] = 10 µM Mor, saturating nicotine, 10 µM epibatidine (Fig. 8)
# [32] = mutation-modulator Ɽ from EC50s vs wild type, 10 µM Oxa
# Chain of α3S125Yβ2 receptor (P04757 26-499 S152Y): as the sequence (P04757 26-499) above, with S127Y counted along it
# Chain of α3S125Yβ2 receptor (P12390 25-500, stated change not applied): as the sequence (P12390 25-500) above
structure (smiles),measurement,setting,value
Clc1ccc(C2CC3CCC2N3)cn1 (stereo not shown) [epibatidine],efficacy compared with ACh,[1]; saturating agonist (Fig. 8),greater efficacy
"Cc1ccsc1C=CC1=NCCCN1C.O=C(O)C(O)C(O)C(=O)O [Mor, 1,4,5,6-tetrahydro-1-methyl-2-(2-[3-methyl-2-thienyl]ethenyl)pyrimidine, tartrate salt]",potentiation (IACh+Mor/IACh),[2],greater than 2.5 fold
same,potentiation (IACh+Mor/IACh),"[3]; 10 µM Mor, 1 mM ACh, control measurement before oxidation (Fig. 2)",greater than 2.5 fold
same,R(mut-Mor),"[3]; Ɽ=EC50(WT,A)·EC50(mut,A+M)/EC50(WT,A+M)·EC50(mut,A), M = 10 µM Mor",0.52
same,potentiation of ACh-evoked currents,[4],eliminated
same,R(mut-Mor),[4]; [29],10
same,decrease in EC50 for Mor modulation vs wild type,"[5]; ACh + 10 µM Mor EC50 comparison, Table 1",70 fold
same,R(mut-Mor),[6]; 10 µM Mor,7.1
same,R(mut-Mor),[7]; 10 µM Mor,0.57
same,EC50,[8],25 ± 9 µM
same,nH (Mor Activation),"[8]; Mor alone, Hill fit",1.01 ± 0.29 [5–6]
same,Emax (Mor Activation),[8]; [30],0.21 ± 0.02
same,R(mut-Mor),[8]; [29],7.2
same,EC50,[9],92 ± 33 µM
same,nH (Mor Activation),"[9]; Mor alone, Hill fit",0.54 ± 0.11 [4]
same,Emax (Mor Activation),[9]; [30],0.028 ± 0.006
same,R(mut-Mor),[9]; [29],1.3
same,R(mut-Mor),[10],0.10
same,R(mut-Mor),[11],5.3
same,R(mut-Mor),[12],3.3
same,R(mut-Mor),[13],1.7
same,EC50,[14],4.8 ± 2.4 µM
same,response to Mor alone,[14]; 10 µM Mor alone (Fig. 8),nearly negligible current
same,effect on ACh responses,"[14]; 10 µM Mor, 300 µM ACh (Fig. 8)",modestly potentiated
same,effect on responses evoked by nicotine and epibatidine,[14]; [31],inhibited
same,nH (Mor Activation),"[14]; Mor alone, Hill fit",1.08 ± 0.40
same,Emax (Mor Activation),[14]; [30],0.05 ± 0.01 [5]
same,R(mut-Mor),[14]; [29],9.4
same,EC50,[15],1.9 ± 0.2 µM
same,effect on ACh responses,"[15]; 10 µM Mor, 300 µM ACh (Fig. 8)",modestly potentiated
same,effect on responses evoked by nicotine and epibatidine,[15]; [31],inhibited
same,nH (Mor Activation),"[15]; Mor alone, Hill fit",3.18 ± 0.63
same,Emax (Mor Activation),[15]; [30],0.16 ± 0.01 [3]
same,R(mut-Mor),[15]; [29],1.2
same,Ω (Mor alone activation),[15]; thermodynamic cycle α3S125Y-β2A127Y from Mor alone EC50s,3.4
same,Emax (Mor Activation),"[16]; Mor alone, relative to saturating ACh, no Hill fit possible",0.16 ± 0.01 [4]
same,R(mut-Mor),[16]; [29],1.4
same,Emax (Mor Activation),[17],0.03 ± 0.01 [7]
same,R(mut-Mor),[18],9.0
same,nH (Mor Activation),[19]; Hill fit,3.1 ± 1.6
same,Emax (Mor Activation),[19]; relative to saturating ACh,0.2 and 0.20 ± 0.04
same,EC50,"[19]; read-out: EC50 (Mor Activation), Hill fit",20 ± 2 µM
same,Emax (Mor Activation),[20],0.015 ± 0.004 [3]
same,EC50,[1],2.3 ± 0.7 µM
same,response to Mor alone,"[1]; 10 µM Mor alone (Fig. 8, Fig. 5A)",full agonist
same,effect on ACh responses,"[1]; 10 µM Mor, 300 µM ACh (Fig. 8)",modestly potentiated
same,effect on responses evoked by nicotine and epibatidine,[1]; [31],inhibited
same,decrease in EC50 for Mor modulation vs wild type,[1]; ACh + 10 µM Mor EC50 comparison,1000 fold
same,Emax (Mor Activation),[1]; [30],1.7 and 1.69 ± 0.27
same,R(mut-Mor),[1]; [29],0.0076
same,EC50,[21],0.53 ± 0.21 µM
same,potentiation (IACh+Mor/IACh),"[21]; 10 µM Mor, 300 µM ACh, control measurement before oxidation (Fig. 2)",greater than 2.5 fold
same,nH (Mor Activation),"[21]; Mor alone, Hill fit",0.92 ± 0.30 [4–8]
same,Emax (Mor Activation),[21]; [30],1.00 ± 0.14
same,R(mut-Mor),[21]; [29],4.5
CN1CCC[C@H]1c1cccnc1 [nicotine],efficacy compared with ACh,[1],greater efficacy
"O[C@@H](CS)[C@@H](O)CS (racemic) [DTT, dithiothreitol]",reversal of oxidation-induced current decrease by reduction,[22]; subsequent DTT treatment (Supplemental Fig. S2B),completely reversed
same,reduction of the disulfide bond after oxidation,[23]; 40–100 µM DTT after H2O2 (Fig. 6),effective resistance
same,reduction of the disulfide bond after oxidation,[24]; 40 µM DTT after oxidation (Fig. 7),essentially resistant
same,change of currents upon reduction following oxidation,[25]; DTT after H2O2 (Supplemental Fig. S4),"did decrease currents, but not completely to the control level"
OO [H2O2],effect of oxidizing treatment on evoked currents,[26],unaffected
same,reduction of evoked currents following oxidation,[22]; H2O2 treatment (abstract),up to 50%
same,"Ioxidation/Icontrol, final fraction of current remaining at long times",[22]; oxidation onset kinetics (Supplemental Fig. S2A),0.61 ± 0.05
same,"decrease of currents evoked by ACh, ACh + Mor and Mor alone upon oxidation","[23]; 4.4 mM H2O2 alone, 300 µM ACh, 300 µM ACh + 10 µM Mor, 10 µM Mor (Fig. 6)",62–89%
same,decrease of IACh upon oxidation,"[23]; 5 min 4.4 mM H2O2 alone, current evoked by 300 µM ACh",60%
same,decrease of IACh+Mor upon oxidation,"[23]; 5 min 4.4 mM H2O2 alone, current evoked by 300 µM ACh + 10 µM Mor",80% and 90%
same,change in evoked currents upon oxidation,[27],no changes
same,"change of currents evoked by ACh alone, ACh + Mor and Mor alone upon oxidation","[24]; 4.4 mM H2O2 alone or with 100 µM ACh + 10 µM Mor, 1 mM ACh, 10 µM Mor (Fig. 7)",all increased
same,change of currents upon oxidation,[25]; H2O2 alone (Supplemental Fig. S4),significantly increased currents
"CN1CCCN=C1/C=C/c1cccc(O)c1 [Oxa, 1-methyl-2-(3-hydroxyphenylethenyl)-1,4,5,6-tetrahydropyrimidine with 4,4’-methylenebis(3-hydroxy-2-naphthoic acid)]",R(mut-Oxa),[3]; [32],1.9
same,R(mut-Oxa),[28],1.2
same,potentiation of ACh-evoked currents,[4],eliminated
same,R(mut-Oxa),[4]; [32],19
same,R(mut-Oxa),[5]; [32],1.5
same,R(mut-Oxa),[6]; 10 µM Oxa,19
same,R(mut-Oxa),[7]; 10 µM Oxa,1.6

# Reference: article PMC4332533 (Neuropharmacology, 2014)
